Test results published in patent US20250059604A1, “BIOMARKERS AND METHODS RELATED TO FRAGILE X SYNDROME” (University of Massachusetts, priority 2021, published 2025).
Values joined by “and” are separate entries in the source; they are usually repeats but may differ in a detail not shown here. Equal entries are not always repeated. Where two headings read alike, the source gives them in different places.

Key:
[1] = tested on: FMR1 RNA (full-length FMR1 and FMR1-217) in FXS1 and FXS2 LCLs; experiment: 5-AzadC treatment of FXS lymphoblast cell lines, RT-qPCR of full-length FMR1 and FMR1-217 RNA relative to GAPDH; format: cell-based, human; conditions: 1 μM, seven days, RT-qPCR normalized to GAPDH
Experimental: One μg of total RNA was primed with oligo(dT)20 to generate cDNA with a QuantiTect cDNA synthesis kit (Qiagen, #205311) using random hexamers. qPCR was performed using the iTaq™ Universal SYBR® Green Supermix (BIO-RAD #1725122) on a QuantStudio 3 qPCR machine in duplicate.
Lymphoblast cell lines (LCL) were obtained from Coriell Institute from two FXS individuals (GM07365 (FXS1), GM06897 (FXS2)) and two typically developing control males (GM07174 (WT3), GM06890 (WT4)). Cells were cultured in RPMI 1640 medium (Sigma-Aldrich), supplemented with 15% fetal bovine serum (FBS) and 2.5% L-glutamine at 37° C. with 5% CO2 in T25 flasks.
For each cell culture, 30×10^5 cells/ml were added to a final volume of 20 ml media (RPMI1640 medium (Sigma-Aldrich) supplemented with 15% fetal bovine serum (FBS) and 2.5% L-glutamine at 37° C. with 5% C02) per T25 flask. 5-Aza-2′-deoxycytidine (5-AzadC) (Sigma-Aldrich, A3656) was added to the cell cultures (final concentration 1 μM) for 7 consecutive days. A 2 mM stock of 5-AzadC was made in DMSO. For each cell line, two independent treatments were performed (n=2). For the no treatment controls for each cell line, DMSO was added to the flasks. For samples with both 5-AzadC and ASO treatment, 80 nM or 160 nM ASOs or vehicle were added on Day 1 and either 5-AzadC or DMSO was added each day from Day 2 up to Day 9 at a final concentration of 1 μM. On Day 9 the cells were collected in 1× phosphate buffered saline to proceed with RNA extraction or Western blotting.
DNA methylation of the CpG island upstream of the FMR1 gene promoter in FXS individuals (MFM, Methylated full mutation) contributes to transcriptional silencing of the locus and loss of FMRP. FMR1 transcription can be reactivated by treatment with the nucleoside analogue 5-AzadC (5-aza-2′-deoxycytidine), which inhibits DNA methylation (Tabolacci et al., 2016b, 2016a). […] Next, FXS1 and FXS2 cell lines were treated with the 5-AzadC and then measured FMR1 RNA and FMRP levels. […]

FMRP = experiment: 5-AzadC treatment of FXS lymphoblast cell lines, western blot of FMRP relative to GAPDH; format: cell-based, human; conditions: FXS1 and FXS2 LCLs, 5-AzadC vs DMSO
Experimental: For each cell culture, 30×10^5 cells/ml were added to a final volume of 20 ml media (RPMI1640 medium (Sigma-Aldrich) supplemented with 15% fetal bovine serum (FBS) and 2.5% L-glutamine at 37° C. with 5% C02) per T25 flask. 5-Aza-2′-deoxycytidine (5-AzadC) (Sigma-Aldrich, A3656) was added to the cell cultures (final concentration 1 μM) for 7 consecutive days. A 2 mM stock of 5-AzadC was made in DMSO. For each cell line, two independent treatments were performed (n=2). For the no treatment controls for each cell line, DMSO was added to the flasks. […]
Cells were homogenized at 4° C. in RIPA buffer, with incubation on ice for 10 minutes and dissociation by pipetting. […] Protein concentration was determined using BCA reagent. Proteins ([…]) were diluted in SDS-bromophenol blue reducing buffer with 40 mM DTT and analyzed using western blotting with the following antibodies: FMRP (Millipore, mAb2160, 1:1,000), FMRP (Abcam, ab17722, 1:1,000) and GAPDH (14C10, Cell Signaling Technology, mAb 2118, 1:2,000), diluted in 1× TBST with 5% non-fat milk. […]
DNA methylation of the CpG island upstream of the FMR1 gene promoter in FXS individuals (MFM, Methylated full mutation) contributes to transcriptional silencing of the locus and loss of FMRP. […] Next, FXS1 and FXS2 cell lines were treated with the 5-AzadC and then measured FMR1 RNA and FMRP levels. […]

[2] = tested on: FMR1 transcripts (total, FMR1-205, FMR1-217) in FXS-NSC; conditions: FXS iPSC-derived NSCs, re-analyzed from RNA-seq data of Vershkov et al., cited from earlier work
[3] = FXS1 LCL (GM07365, fully methylated)

**Q.** Which results are given for Nc1ncn([C@H]2C[C@H](O)[C@@H](CO)O2)c(=O)n1 [5-AzadC, 5-Aza-2′-deoxycytidine]?
**A.** FMR1-217 RNA relative to DMSO-treated cells [1, 3]: significant increases; full-length FMR1 RNA relative to DMSO-treated cells [1, 3]: significant increases; full-length FMR1 and FMR1-217 RNA relative to DMSO-treated cells ([1]; FXS2 LCL (GM06897, partially methylated)): increase of only full-length FMR1 RNA; FMRP level (FMRP/GAPDH, western blot) (FMRP): In neither cell line did 5-AzadC treatment induce an increase in FMRP; FMR1 (Total) reads ([2]; biologic duplicates): 9.9 TPM and 6.1 TPM; FMR1-217 reads ([2]; biologic duplicates): 6.9 TPM and 3.9 TPM; FMR1-217 expression (RNA-seq reads), in words [2]: strong FMR1-217 expression was observed only in the 5-AzadC-treated cells; total FMR1 and FMR1-205 expression (RNA-seq reads), in words [2]: strong total FMR1 and FMR1-205 expression; FMR1-217 expression (RNA-seq reads), in words ([2]; listed as 5-azadC): FMR1-217 reads are detected only in the 5-azadC-treated samples
